Measured values from ChEMBL document CHEMBL3860026, “Depsidones from Lichens as Natural Product Inhibitors of M-Phase Phosphoprotein 1, a Human Kinesin Required for Cytokinesis” (J Nat Prod, 2016).
≈ marks a conversion by molar mass, not a printed value. Calls of active or inactive are those of the source. The calls are words filed in the database; no cut-off is given here.

Tests used:
[1] = biological target: T1, Kinesin-like protein KIF20B (Homo sapiens, UniProt Q96Q89); test: Inhibition of microtubule-stimulated ATPase activity of N-terminal His6-tagged/SUMO-fused human MPP1 motor domain (2 to 477 residues) expressed in Escherichia coli BL21 CodonPlus by pyruvate kinase/lactate dehydrogenase-linked assay
T1 sequence (Q96Q89 whole entry, the tested form may be a part): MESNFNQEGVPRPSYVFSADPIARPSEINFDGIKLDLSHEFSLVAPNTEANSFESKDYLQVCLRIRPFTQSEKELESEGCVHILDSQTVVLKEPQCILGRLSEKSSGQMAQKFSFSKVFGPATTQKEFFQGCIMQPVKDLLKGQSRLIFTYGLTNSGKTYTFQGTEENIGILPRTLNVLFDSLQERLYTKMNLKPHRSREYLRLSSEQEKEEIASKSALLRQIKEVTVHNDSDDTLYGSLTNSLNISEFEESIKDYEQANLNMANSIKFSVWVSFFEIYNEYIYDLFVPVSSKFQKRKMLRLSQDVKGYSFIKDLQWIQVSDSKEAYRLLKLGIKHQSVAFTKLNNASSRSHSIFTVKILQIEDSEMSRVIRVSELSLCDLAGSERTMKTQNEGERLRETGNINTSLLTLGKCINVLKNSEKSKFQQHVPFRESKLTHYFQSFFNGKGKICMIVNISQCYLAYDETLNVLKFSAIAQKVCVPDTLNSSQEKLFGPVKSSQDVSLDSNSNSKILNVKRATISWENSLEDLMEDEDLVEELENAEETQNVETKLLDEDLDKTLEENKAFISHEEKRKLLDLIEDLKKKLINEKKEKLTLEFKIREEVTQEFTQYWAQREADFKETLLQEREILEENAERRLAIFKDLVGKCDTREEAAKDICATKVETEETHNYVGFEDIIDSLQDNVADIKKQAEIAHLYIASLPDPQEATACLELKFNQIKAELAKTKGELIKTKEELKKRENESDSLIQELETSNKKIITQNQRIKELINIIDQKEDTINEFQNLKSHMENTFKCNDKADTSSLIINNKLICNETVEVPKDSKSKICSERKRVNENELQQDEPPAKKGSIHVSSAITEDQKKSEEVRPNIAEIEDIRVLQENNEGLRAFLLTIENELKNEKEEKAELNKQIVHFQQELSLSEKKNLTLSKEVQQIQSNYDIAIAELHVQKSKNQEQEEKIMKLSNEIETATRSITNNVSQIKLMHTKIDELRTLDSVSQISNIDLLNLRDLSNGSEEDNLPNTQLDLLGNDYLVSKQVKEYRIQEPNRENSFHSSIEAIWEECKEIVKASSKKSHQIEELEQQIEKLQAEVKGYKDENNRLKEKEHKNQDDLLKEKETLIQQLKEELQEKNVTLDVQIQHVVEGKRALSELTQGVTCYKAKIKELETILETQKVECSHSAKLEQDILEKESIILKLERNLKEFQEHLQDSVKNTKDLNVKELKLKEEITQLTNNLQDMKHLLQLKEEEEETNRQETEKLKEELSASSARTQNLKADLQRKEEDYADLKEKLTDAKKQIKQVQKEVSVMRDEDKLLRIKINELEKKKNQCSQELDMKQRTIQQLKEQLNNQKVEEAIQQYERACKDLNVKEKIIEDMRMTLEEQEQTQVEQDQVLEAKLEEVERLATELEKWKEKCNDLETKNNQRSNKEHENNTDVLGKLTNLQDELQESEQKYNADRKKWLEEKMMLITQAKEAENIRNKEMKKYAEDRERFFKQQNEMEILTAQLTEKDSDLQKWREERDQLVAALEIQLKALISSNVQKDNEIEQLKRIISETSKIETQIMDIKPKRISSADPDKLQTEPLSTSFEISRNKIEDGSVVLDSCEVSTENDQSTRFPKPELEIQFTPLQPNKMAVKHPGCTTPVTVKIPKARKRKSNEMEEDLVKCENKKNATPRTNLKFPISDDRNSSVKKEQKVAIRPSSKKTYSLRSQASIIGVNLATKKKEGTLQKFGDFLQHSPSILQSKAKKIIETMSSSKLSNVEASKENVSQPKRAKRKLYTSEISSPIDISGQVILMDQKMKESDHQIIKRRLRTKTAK

[2] = Half life in mouse liver microsomes at 3 uM by LC-MS/MS method; format: ADME
[3] = biological target: T2, Kinesin-like protein KIF9 (Homo sapiens) (UniProt Q9HAQ2); test: Inhibition of microtubule-stimulated ATPase activity of human Kif9 at 200 uM by pyruvate kinase/lactate dehydrogenase-linked assay
T2 sequence (whole entry): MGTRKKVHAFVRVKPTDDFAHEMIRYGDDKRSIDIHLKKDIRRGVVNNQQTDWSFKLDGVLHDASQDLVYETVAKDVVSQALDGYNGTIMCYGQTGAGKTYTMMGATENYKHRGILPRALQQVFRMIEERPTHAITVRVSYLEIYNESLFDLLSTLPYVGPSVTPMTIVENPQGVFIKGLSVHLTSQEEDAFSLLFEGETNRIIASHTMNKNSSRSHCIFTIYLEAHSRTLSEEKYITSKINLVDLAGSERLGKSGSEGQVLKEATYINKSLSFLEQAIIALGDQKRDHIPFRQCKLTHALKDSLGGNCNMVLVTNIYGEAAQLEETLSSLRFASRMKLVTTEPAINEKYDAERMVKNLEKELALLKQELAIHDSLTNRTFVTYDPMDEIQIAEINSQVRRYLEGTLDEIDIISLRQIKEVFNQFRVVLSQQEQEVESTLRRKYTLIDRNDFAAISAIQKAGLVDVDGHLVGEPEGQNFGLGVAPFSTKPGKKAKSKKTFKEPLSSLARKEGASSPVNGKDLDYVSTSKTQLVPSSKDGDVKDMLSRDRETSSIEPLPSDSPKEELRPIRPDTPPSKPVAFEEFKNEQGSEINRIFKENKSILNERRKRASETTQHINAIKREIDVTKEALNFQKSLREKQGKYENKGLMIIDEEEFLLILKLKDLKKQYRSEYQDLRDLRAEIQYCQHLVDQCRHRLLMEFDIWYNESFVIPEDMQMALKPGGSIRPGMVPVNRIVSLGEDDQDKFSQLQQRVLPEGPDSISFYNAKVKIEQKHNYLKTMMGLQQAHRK

[4] = Cytotoxicity against human HCT116 cells assessed as growth inhibition after 72 hrs by Alamar Blue assay; format: functional, cell-based; conditions: HCT-116, 72 h
[5] = Intrinsic clearance in human liver microsomes assessed per mg of protein at 3 uM after 5 to 60 mins by LC-MS/MS method; format: ADME; conditions: read-out: CLH
[6] = biological target: Centromere-associated protein E (Homo sapiens, UniProt Q02224); test: Inhibition of microtubule-stimulated ATPase activity of human CENP-E by pyruvate kinase/lactate dehydrogenase-linked assay
Centromere-associated protein E, sequence (Q02224 whole entry): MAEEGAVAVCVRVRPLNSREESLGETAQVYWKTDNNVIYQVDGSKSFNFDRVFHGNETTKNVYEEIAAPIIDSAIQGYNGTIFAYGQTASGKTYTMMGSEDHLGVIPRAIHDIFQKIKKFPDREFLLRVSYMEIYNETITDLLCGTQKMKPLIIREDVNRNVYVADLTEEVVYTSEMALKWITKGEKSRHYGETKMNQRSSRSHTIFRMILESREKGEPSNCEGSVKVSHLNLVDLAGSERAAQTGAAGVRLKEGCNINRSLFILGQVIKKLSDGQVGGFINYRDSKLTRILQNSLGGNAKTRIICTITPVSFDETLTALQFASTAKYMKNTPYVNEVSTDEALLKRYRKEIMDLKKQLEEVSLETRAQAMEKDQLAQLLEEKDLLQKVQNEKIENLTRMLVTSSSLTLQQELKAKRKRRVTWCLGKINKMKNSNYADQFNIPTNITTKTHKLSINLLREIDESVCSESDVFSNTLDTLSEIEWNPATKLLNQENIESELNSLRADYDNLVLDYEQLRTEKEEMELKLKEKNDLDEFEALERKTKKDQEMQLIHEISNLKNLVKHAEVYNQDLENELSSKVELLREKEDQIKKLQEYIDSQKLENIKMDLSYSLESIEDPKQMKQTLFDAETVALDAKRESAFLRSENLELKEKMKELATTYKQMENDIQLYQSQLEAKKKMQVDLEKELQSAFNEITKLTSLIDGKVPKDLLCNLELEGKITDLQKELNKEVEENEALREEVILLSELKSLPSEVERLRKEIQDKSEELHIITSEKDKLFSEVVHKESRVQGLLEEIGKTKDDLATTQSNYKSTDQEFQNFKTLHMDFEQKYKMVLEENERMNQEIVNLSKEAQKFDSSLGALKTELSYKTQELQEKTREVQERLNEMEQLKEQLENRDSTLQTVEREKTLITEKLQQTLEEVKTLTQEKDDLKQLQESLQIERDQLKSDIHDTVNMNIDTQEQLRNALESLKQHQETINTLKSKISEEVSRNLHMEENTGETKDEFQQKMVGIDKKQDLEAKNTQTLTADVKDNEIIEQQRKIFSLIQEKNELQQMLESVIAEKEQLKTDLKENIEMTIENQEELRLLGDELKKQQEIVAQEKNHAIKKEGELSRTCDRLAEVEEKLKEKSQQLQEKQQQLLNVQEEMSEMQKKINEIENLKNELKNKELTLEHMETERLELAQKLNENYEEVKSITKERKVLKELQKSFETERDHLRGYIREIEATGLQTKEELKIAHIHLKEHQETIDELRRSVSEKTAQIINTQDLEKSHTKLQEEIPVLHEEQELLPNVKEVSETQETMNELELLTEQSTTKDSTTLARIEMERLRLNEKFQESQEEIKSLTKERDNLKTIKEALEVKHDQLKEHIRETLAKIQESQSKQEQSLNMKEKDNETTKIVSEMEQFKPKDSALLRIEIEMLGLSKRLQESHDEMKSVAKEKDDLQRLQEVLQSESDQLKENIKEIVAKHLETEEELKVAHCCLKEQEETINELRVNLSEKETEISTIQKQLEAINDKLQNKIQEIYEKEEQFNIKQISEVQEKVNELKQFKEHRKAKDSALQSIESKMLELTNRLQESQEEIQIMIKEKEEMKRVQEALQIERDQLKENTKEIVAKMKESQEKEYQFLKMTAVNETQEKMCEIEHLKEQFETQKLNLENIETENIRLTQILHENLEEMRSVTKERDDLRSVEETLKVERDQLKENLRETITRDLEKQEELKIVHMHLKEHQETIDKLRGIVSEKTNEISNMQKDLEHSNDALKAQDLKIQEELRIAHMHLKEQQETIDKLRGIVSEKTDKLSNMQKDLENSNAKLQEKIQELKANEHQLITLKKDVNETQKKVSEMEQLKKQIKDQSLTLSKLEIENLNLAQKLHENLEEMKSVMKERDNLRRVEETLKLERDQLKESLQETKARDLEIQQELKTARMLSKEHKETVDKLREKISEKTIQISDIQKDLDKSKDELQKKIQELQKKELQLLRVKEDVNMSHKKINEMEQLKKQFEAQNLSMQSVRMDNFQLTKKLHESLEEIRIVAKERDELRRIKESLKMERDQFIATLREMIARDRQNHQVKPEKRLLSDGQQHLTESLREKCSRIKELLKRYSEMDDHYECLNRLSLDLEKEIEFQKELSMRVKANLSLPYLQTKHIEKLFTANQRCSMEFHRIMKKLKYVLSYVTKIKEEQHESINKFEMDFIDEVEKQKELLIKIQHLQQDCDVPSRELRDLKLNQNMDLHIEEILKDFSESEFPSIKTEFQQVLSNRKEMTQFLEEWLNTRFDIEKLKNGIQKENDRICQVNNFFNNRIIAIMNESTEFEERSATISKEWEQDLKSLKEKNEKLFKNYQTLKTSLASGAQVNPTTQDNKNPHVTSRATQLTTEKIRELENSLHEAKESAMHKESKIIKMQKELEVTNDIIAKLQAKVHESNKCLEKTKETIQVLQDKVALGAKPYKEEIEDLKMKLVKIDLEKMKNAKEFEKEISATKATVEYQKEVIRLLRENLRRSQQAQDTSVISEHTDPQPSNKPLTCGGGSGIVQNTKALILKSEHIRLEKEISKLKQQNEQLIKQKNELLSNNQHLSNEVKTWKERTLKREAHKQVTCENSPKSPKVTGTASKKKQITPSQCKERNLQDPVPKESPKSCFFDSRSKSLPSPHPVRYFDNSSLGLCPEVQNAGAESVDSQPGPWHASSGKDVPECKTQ

[7] = biological target: T1, Kinesin-like protein KIF20B; conditions: 1 to 20 uM
[8] = biological target: T3, Kinesin-like protein KIF3B (Homo sapiens) (UniProt O15066); test: Inhibition of microtubule-stimulated ATPase activity of human Kif3B at 200 uM by pyruvate kinase/lactate dehydrogenase-linked assay
T3 sequence (whole entry): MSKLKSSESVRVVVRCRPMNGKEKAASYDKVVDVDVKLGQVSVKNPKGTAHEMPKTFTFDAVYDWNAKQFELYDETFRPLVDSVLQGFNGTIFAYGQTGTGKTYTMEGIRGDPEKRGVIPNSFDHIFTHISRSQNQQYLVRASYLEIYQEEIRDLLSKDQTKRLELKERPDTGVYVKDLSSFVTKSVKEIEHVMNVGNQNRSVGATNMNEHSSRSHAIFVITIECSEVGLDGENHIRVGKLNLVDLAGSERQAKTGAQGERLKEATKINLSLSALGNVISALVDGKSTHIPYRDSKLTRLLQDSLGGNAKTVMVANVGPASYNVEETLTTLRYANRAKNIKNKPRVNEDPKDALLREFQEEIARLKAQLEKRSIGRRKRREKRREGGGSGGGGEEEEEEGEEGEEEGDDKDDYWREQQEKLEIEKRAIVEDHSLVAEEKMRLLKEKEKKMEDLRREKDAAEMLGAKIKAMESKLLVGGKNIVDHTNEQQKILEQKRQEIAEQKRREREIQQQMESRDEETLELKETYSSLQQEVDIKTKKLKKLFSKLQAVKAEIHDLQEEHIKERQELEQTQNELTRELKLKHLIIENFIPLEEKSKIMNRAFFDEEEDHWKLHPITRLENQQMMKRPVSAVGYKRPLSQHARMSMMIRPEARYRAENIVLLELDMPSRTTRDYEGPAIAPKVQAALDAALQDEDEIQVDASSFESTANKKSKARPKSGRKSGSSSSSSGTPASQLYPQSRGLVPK

[9] = Solubility of the compound in phosphate buffered saline at pH 6 after 2 hrs by turbidimetric method; format: physicochemical

IC50 [1]: 4.6 µM | Imax [1]: 95% | half-life at 3 µM [2]: 22.5 min | inhibition [3]: 50% | microsomal CLint at 3 µM [5]: 310 µL/min/mg | IC50 [6]: 91.4 µM | inhibition [7]: Active | inhibition [8]: 40% | solubility kinetic at 2 h [9]: 65 µM (≈ 30.6 µg/mL)
SMILES: CCCCCC(=O)Cc1cc(O)cc2c1C(=O)Oc1cc(O)c(C(=O)O)c(CCCCC)c1O2 [PHYSODIC ACID]
EC50 [4]: > 50 µM
